Experimental data taken from ChEMBL document CHEMBL1139672, “1,2,3,4-Tetrahydroisoquinolinyl sulfamic acids as phosphatase PTP1B inhibitors” (Bioorg Med Chem Lett, 2006).
pIC50: −log10 of the molar value.

Target: T1, Receptor-type tyrosine-protein phosphatase eta (Homo sapiens, UniProt Q12913)
T1 sequence (Q12913 whole entry): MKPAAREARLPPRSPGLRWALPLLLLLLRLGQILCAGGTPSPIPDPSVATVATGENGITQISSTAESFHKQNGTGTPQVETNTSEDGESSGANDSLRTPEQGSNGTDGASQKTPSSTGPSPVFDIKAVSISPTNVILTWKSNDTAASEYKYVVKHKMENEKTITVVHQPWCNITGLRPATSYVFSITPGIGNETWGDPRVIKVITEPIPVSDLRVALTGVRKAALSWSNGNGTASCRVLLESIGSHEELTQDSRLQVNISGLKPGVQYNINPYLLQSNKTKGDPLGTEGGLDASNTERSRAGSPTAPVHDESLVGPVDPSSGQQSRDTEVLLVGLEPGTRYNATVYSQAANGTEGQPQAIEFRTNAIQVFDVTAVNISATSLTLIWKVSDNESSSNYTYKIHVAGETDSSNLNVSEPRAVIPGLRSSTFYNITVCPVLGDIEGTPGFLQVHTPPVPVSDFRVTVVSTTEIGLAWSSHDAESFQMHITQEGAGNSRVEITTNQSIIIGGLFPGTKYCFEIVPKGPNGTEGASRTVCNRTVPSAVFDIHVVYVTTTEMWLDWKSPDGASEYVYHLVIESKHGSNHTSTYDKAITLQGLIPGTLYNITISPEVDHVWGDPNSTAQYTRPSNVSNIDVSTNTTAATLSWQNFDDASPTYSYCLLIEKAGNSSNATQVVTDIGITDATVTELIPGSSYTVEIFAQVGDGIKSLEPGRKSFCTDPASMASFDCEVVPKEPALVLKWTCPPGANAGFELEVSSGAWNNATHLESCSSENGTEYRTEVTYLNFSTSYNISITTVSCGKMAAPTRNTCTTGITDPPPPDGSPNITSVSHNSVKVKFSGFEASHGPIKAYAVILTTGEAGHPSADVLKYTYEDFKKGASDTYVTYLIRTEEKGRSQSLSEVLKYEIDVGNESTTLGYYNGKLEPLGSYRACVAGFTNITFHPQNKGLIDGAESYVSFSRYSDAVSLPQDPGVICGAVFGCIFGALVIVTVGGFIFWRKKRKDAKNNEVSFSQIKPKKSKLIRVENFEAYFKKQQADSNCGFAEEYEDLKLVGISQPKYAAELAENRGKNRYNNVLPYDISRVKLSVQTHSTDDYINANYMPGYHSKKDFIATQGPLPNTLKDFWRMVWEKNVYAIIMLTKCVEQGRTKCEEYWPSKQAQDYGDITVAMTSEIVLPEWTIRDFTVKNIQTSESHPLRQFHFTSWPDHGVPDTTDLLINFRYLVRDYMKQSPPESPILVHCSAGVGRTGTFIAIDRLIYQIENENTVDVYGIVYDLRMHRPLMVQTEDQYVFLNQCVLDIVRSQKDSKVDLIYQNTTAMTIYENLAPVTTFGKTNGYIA
Assay: Inhibition of HPTP eta

pIC50: 3.82
SMILES: CNC(=O)[C@@H]1Cc2ccc(NS(=O)(=O)O)cc2CN1C(=O)CCc1cccc(NS(=O)(=O)O)c1
